Laboratory results from publication PMC9110766, “Structure-Based Design of 2-Aminopurine Derivatives as CDK2 Inhibitors for Triple-Negative Breast Cancer” (Frontiers in Pharmacology, 2022).
Counter-ions that a name gives are not always drawn.

Tests used:
CDK2/cyclin A = CDK2/cyclin A (Homo sapiens, UniProt P24941); assay: CDK2 inhibition, Kinase-Glo Luminescent Kinase Assay; format: biochemical; conditions: for IC50: geometric means of n ⩾ 3 experiments, 10 µM ATP, read-out: IC50 against CDK2; for inhibition at 0.5 µM: read-out: inhibition rate (%) @0.5 μM against CDK2, compound at 0.5 μM; for CDK2 inhibitory activity (in words): screened at 0.5 μM
Procedure: The IC50 values were calculated using Prism GraphPad software.

CDK8/cyclin C = CDK8/cyclin C (Homo sapiens, UniProt P49336); assay: CDK8 inhibition, Kinase-Glo Luminescent Kinase Assay; format: biochemical; conditions: for selectivity for CDK2 over CDK8: CDK8 inhibition <20% @ 5 μM; for CDK8/cyclin C Inhibition rate @5 μM (%) / inhibition at 5 µM: compound at 5 μM; for inhibition at 5 µM: read-out: CDK8/cyclin C Inhibition rate @5 μM (%)
Procedure: (§1) Experiments were carried out using the Kinase-Glo® Luminescent Kinase Assays as described previously ([Kashem et al., 2007]). Briefly, all enzymatic reactions were conducted at 30°C for 40 min. The 50 µl reaction mixture contains 40 mM Tris, pH 7.4, 10 mM MgCl2, 0.1 mg/ml BSA, 1 mM DTT, 10 µM ATP, 0.2 μg/ml CDKs, and 100 μM lipid substrate. The compounds were diluted with 10% DMSO and then 5 µl of the dilution was removed and put into the subsequent reaction. The kinase activities were measured by detecting the content of remaining ATP. The luminescent signal was correlated with the amount of residual ATP and negatively correlated with the amount of kinase activity. The IC50 values were calculated using Prism GraphPad software.

MDA-MB-231 cells [1] = assay: Anti-proliferation test (MTT); format: cell-based; conditions: Homo sapiens, 48 h
Procedure: Standard MTT (thiazolyl blue; 3-[4,5-dimethylthiazol-2-yl]-2,5-diphenyltetrazolium bromide) assays were performed as 5 mg/ml. Briefly, MDA-MB-231 or 293T cells were seeded into 96-well plates and incubated for 24 h at 37°C. All compounds were dissolved in DMSO, and a gradient dilution series were prepared in 100 μl of cell medium, added to cells (in triplicates), and incubated for 48 h at 37°C with 5% CO2. MTT was added (5 mg/ml, 20 μl) to each plate and these mixtures were incubated for another 4 h. Then, the medium was removed, and the mixture was completely dissolved in DMSO (200 μL) after shaking for 10 min.

MDA-MB-231 cells [2] = assay: Cell cycle analysis (PI staining, flow cytometry); format: cell-based, human; conditions: 20 μM, 24 h, compared with negative control group
Procedure: MDA-MB-231 cells were seeded in six-well plates and incubated with 20 μM compounds 11c, 11l, 11p, and vehicle (0.2% DMSO) for 24 h. Subsequently, cells were centrifugated and washed with cold PBS buffer. After the centrifugation, the supernatants were removed, and the cells were resuspended in PBS buffer. Then, 10 μl of PI were added and the cells were incubated in the dark for 15 min at room temperature. The stained cells were analyzed by a flow cytometer (BD Accuri C6).

CDK6/cyclin D3 = CDK6/cyclin D3 (Homo sapiens, UniProt Q00534); assay: CDK6 inhibition, Kinase-Glo Luminescent Kinase Assay; format: biochemical; conditions: for selectivity for CDK2 over CDK6: ratio of IC50 values
Procedure: as §1

CDK1/cyclin B = CDK1/cyclin B (Homo sapiens, UniProt P06493); assay: CDK1 inhibition, Kinase-Glo Luminescent Kinase Assay; format: biochemical; conditions: for selectivity for CDK2 over CDK1: ratio of IC50 values
Procedure: as §1

CDK1/B = conditions: ref Coxon et al., 2017; cited from earlier work
CDK2/A = conditions: ref Coxon et al., 2017; cited from earlier work

Chain of CDK6/cyclin D3 (Q00534 whole entry): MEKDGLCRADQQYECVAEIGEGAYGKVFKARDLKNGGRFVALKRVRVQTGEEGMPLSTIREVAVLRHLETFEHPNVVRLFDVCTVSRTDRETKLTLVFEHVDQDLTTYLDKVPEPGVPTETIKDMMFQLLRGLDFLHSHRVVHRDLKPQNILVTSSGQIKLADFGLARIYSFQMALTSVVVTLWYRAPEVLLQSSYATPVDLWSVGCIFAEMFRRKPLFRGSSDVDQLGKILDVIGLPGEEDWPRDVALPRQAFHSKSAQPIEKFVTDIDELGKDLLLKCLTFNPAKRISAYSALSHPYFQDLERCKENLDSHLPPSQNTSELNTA
Chain of CDK6/cyclin D3 (P30281 whole entry partner): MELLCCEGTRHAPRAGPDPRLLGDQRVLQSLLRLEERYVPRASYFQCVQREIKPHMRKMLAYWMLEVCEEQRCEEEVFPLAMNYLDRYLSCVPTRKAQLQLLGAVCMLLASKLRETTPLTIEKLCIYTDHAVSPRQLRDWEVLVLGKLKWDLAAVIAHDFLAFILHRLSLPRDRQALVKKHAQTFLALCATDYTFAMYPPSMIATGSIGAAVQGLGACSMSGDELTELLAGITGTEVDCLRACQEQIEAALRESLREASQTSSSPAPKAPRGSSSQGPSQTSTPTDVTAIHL
Chain of CDK1/cyclin B (P06493 whole entry): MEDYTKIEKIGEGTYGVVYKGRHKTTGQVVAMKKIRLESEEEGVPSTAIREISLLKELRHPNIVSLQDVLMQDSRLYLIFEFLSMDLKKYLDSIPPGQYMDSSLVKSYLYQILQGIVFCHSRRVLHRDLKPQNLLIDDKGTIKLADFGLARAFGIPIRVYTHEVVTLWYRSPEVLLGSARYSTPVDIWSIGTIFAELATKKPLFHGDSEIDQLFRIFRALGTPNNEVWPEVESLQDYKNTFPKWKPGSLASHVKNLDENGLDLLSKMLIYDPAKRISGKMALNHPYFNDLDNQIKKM
Chain of CDK1/cyclin B (P14635 whole entry partner): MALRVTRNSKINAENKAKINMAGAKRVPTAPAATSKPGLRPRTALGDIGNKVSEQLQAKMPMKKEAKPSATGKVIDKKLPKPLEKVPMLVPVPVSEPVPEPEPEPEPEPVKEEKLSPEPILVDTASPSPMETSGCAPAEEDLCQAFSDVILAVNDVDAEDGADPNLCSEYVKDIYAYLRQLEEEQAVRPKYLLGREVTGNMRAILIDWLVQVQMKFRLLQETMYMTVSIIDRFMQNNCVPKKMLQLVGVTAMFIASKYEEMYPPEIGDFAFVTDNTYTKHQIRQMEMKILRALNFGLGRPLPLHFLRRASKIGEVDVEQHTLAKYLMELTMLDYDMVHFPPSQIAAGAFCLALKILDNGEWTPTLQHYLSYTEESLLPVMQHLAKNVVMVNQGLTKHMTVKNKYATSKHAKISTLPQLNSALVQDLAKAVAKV
Chain of CDK8/cyclin C (P49336 whole entry): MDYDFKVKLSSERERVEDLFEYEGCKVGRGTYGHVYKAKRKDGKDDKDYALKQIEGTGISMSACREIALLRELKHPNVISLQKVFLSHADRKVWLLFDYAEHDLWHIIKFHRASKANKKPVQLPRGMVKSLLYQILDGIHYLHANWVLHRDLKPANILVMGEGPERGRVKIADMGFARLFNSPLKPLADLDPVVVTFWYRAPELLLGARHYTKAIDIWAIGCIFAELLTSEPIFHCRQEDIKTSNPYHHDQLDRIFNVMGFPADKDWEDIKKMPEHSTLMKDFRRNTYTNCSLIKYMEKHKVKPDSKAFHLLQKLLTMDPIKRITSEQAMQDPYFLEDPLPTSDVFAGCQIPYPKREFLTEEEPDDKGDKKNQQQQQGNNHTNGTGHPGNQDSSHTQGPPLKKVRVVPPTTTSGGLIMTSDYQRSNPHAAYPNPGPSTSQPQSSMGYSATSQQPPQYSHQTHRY
Chain of CDK8/cyclin C (P24863 whole entry partner): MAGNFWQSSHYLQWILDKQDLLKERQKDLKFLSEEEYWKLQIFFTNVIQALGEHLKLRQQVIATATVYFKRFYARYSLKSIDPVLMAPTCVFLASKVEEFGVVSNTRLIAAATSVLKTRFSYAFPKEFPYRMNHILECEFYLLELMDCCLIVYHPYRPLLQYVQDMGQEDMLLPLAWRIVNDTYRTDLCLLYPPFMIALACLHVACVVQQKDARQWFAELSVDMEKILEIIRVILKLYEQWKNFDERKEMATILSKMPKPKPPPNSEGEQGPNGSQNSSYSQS

Row | Compound | IC50 (CDK2/cyclin A) [µM] | melting point | inhibition at 0.5 µM (CDK2/cyclin A) [%] | also measured
1 | 6-(3-(aminomethyl)phenyl)-N-(4-(piperazin-1-yl)phenyl)-9H-purin-2-amine dihydrochloride [Compound 11r] | 0.19 ± 0.01 | – | – | –
2 | O=[N+]([O-])c1cccc(Nc2nc(-c3ccccc3)c3nc[nH]c3n2)c1 [Compound 5a, N-(3-nitrophenyl)-6-phenyl-9H-purin-2-amine] | 0.31 ± 0.01 | – | – | –
3 | O=[N+]([O-])c1cccc(Nc2nc(-c3cccc4ccccc34)c3nc[nH]c3n2)c1 [Compound 5b, 6-(naphthalen-1-yl)-N-(3-nitrophenyl)-9H-purin-2-amine] | – | > 300 °C | 3 | CDK2 inhibitory activity (in words) (CDK2/cyclin A): weak activity
4 | Cl.O=[N+]([O-])c1cccc(Nc2nc(-c3ccc[nH]3)c3nc[nH]c3n2)c1 [Compound 5c, N-(3-nitrophenyl)-6-(1H-pyrrol-2-yl)-9H-purin-2-amine hydrochloride] | – | 236 °C (dec.) | 37 | –
5 | O=[N+]([O-])c1cccc(Nc2nc(-c3ccsc3)c3nc[nH]c3n2)c1 [Compound 5e, N-(3-nitrophenyl)-6-(thiophen-3-yl)-9H-purin-2-amine] | – | > 280 °C | – | CDK2 inhibitory activity (in words) (CDK2/cyclin A): inactive
6 | O=[N+]([O-])c1cccc(Nc2nc(-c3cccc([N+](=O)[O-])c3)c3nc[nH]c3n2)c1 [Compound 5f, N,6-bis(3-nitrophenyl)-9H-purin-2-amine] | – | > 300 °C | – | CDK2 inhibitory activity (in words) (CDK2/cyclin A): abolished CDK2 inhibitory activity
7 | O=C(O)c1cccc(-c2nc(Nc3cccc([N+](=O)[O-])c3)nc3[nH]cnc23)c1 [Compound 5g, 3-(2-((3-nitrophenyl)amino)-9H-purin-6-yl)benzoic acid] | 0.15 ± 0.01 | – | – | –
8 | O=[N+]([O-])c1cccc(Nc2nc(-c3ccc(F)cc3)c3nc[nH]c3n2)c1 [Compound 5i, 6-(4-fluorophenyl)-N-(3-nitrophenyl)-9H-purin-2-amine] | – | – | – | CDK2 inhibitory activity (in words) (CDK2/cyclin A): abolished CDK2 inhibitory activity
9 | O=C(O)c1ccc(-c2nc(Nc3cccc([N+](=O)[O-])c3)nc3[nH]cnc23)cc1 [Compound 5j, 4-(2-((3-nitrophenyl)amino)-9H-purin-6-yl)benzoic acid] | – | > 300 °C | 7 | CDK2 inhibitory activity (in words) (CDK2/cyclin A): low activity
10 | COC(=O)c1ccc(-c2nc(Nc3cccc([N+](=O)[O-])c3)nc3[nH]cnc23)cc1 [Compound 5k, Methyl 4-(2-((3-nitrophenyl)amino)-9H-purin-6-yl)benzoate] | – | 212 to 214 °C | 3 | CDK2 inhibitory activity (in words) (CDK2/cyclin A): abolished CDK2 inhibitory activity
11 | Cl.NCc1cccc(-c2nc(Nc3cccc([N+](=O)[O-])c3)nc3[nH]cnc23)c1 [Compound 11c, 6-(3-(aminomethyl)phenyl)-N-(3-nitrophenyl)-9H-purin-2-amine hydrochloride] | 0.11 ± 0.01 | 236 to 238 °C | – | selectivity for CDK2 over CDK8 (CDK8/cyclin C): more than 42 fold; CDK8/cyclin C Inhibition rate @5 μM (%) (CDK8/cyclin C): 19%; inhibition at 5 µM (CDK8/cyclin C): < 20%; IC50 (MDA-MB-231 cells [1]): 8.11 to 15.7 µM; effect on cell cycle (percentage of cells in G2/M phase) (MDA-MB-231 cells [2]): increased the percentage of cells in the G2/M phase; IC50 (CDK6/cyclin D3): 2.2 ± 0.1 µM; selectivity for CDK2 over CDK6 (CDK6/cyclin D3): 18 fold; IC50 (CDK1/cyclin B): 0.24 ± 0.04 µM; selectivity for CDK2 over CDK1 (CDK1/cyclin B): 2 fold
12 | Cl.NCc1ccc(-c2nc(Nc3cccc([N+](=O)[O-])c3)nc3[nH]cnc23)cc1 [Compound 11d, 6-(4-(aminomethyl)phenyl)-N-(3-nitrophenyl)-9H-purin-2-amine hydrochloride] | 0.23 ± 0.01 | > 300 °C | – | –
13 | Cl.NCCc1cccc(-c2nc(Nc3cccc([N+](=O)[O-])c3)nc3[nH]cnc23)c1 [Compound 11e, 6-(3-(2-aminoethyl)phenyl)-N-(3-nitrophenyl)-9H-purin-2-amine hydrochloride] | – | > 230 °C | 35 | –
14 | Cl.NCc1ccc(-c2nc(Nc3ccccc3)nc3[nH]cnc23)cc1 [Compound 11g, 6-(4-(aminomethyl)phenyl)-N-phenyl-9H-purin-2-amine hydrochloride] | 0.13 ± 0.02 | 200 to 202 °C | – | –
15 | Cc1ccc(Nc2nc(-c3cccc(CN)c3)c3nc[nH]c3n2)cc1.Cl [Compound 11i, 6-(3-(aminomethyl)phenyl)-N-(p-tolyl)-9H-purin-2-amine hydrochloride] | 0.28 ± 0.02 | > 300 °C | – | –
16 | Cl.NCc1cccc(-c2nc(Nc3ccc(N4CCNCC4)cc3)nc3[nH]cnc23)c1 [Compound 11k, 6-(3-(aminomethyl)phenyl)-N-(4-(piperazin-1-yl)phenyl)-9H-purin-2-amine hydrochloride] | – | > 300 °C | 26 | –
17 | NCc1ccc(-c2nc(Nc3ccc(F)cc3)nc3[nH]cnc23)cc1 [Compound 11o, 6-(4-(aminomethyl)phenyl)-N-(4-fluorophenyl)-9H-purin-2-amine hydrochloride] | 0.24 ± 0.01 | – | – | –
18 | CN(C)S(=O)(=O)c1ccc(Nc2nc(-c3cccc(CN)c3)c3nc[nH]c3n2)cc1.Cl [Compound 11q, 4-((6-(3-(aminomethyl)phenyl)-9H-purin-2-yl)amino)-N,N-dimethylbenzene sulfonamide hydrochloride] | 0.18 ± 0.02 | > 300 °C | – | –
19 | NS(=O)(=O)c1ccc(Nc2nc(-c3cccc(-c4ccccc4)c3)c3nc[nH]c3n2)cc1 [compound 73, reference compound] | – | – | – | IC50 (CDK1/B): 86 µM; IC50 (CDK2/A): 0.044 µM

The next lines start with results.

Row | IC50 (CDK2/cyclin A) [µM] | melting point | inhibition at 0.5 µM (CDK2/cyclin A) [%] | Compound | also measured
20 | – | 260 °C (dec.) | 7 | O=[N+]([O-])c1cccc(Nc2nc(-c3ccc4c(c3)OCO4)c3nc[nH]c3n2)c1 [Compound 5d, 6-(benzo[d][1,3]dioxol-5-yl)-N-(3-nitrophenyl)-9H-purin-2-amine] | CDK2 inhibitory activity (in words) (CDK2/cyclin A): weak activity
21 | – | 257 °C | 11 | COC(=O)c1cccc(-c2nc(Nc3cccc([N+](=O)[O-])c3)nc3[nH]cnc23)c1 [Compound 5h, Methyl 3-(2-((3-nitrophenyl)amino)-9H-purin-6-yl)benzoate] | CDK2 inhibitory activity (in words) (CDK2/cyclin A): abolished CDK2 inhibitory activity
22 | – | > 300 °C | 40 | Cl.Nc1ccc(-c2nc(Nc3cccc([N+](=O)[O-])c3)nc3[nH]cnc23)cc1 [Compound 11b, 6-(4-aminophenyl)-N-(3-nitrophenyl)-9H-purin-2-amine hydrochloride] | –
23 | – | 203 to 205 °C | 35 | Cl.NCc1cccc(-c2nc(Nc3ccccc3)nc3[nH]cnc23)c1 [Compound 11f, 6-(3-(aminomethyl)phenyl)-N-phenyl-9H-purin-2-amine hydrochloride] | –
24 | – | 210 °C (dec.) | 13 | Cl.NCc1cccc(-c2nc(Nc3ccc(-c4ccccc4)cc3)nc3[nH]cnc23)c1 [Compound 11h, N-([1,1′-biphenyl]-4-yl)-6-(3-(aminomethyl)phenyl)-9H-purin-2-amine hydrochloride] | –
25 | – | – | 28 | CC(C)(C)c1ccc(Nc2nc(-c3cccc(CN)c3)c3nc[nH]c3n2)cc1 [Compound 11j, 6-(3-(aminomethyl)phenyl)-N-(4-(tert-butyl)phenyl)-9H-purin-2-amine hydrochloride] | –
26 | – | > 300 °C | 33 | Cl.Cl.NCc1cccc(-c2nc(Nc3cccc(N)c3)nc3[nH]cnc23)c1 [Compound 11m, N ^ 1-(6-(3-(aminomethyl)phenyl)-9H-purin-2-yl)benzene-1,3-diamine dihydrochloride] | –
27 | 0.32 ± 0.06 | > 300 °C | – | Cl.NCc1cccc(-c2nc(Nc3ccc(F)cc3)nc3[nH]cnc23)c1 [Compound 11n, 6-(3-(aminomethyl)phenyl)-N-(4-fluorophenyl)-9H-purin-2-amine hydrochloride] | –
28 | 0.032 ± 0.001 | > 300 °C | – | CNS(=O)(=O)c1ccc(Nc2nc(-c3cccc(CN)c3)c3nc[nH]c3n2)cc1.Cl [Compound 11p, 4-((6-(3-(aminomethyl)phenyl)-9H-purin-2-yl)amino)-N-methylbenzenesulfonamide hydrochloride] | selectivity for CDK2 over CDK8 (CDK8/cyclin C): more than 140 fold; CDK8/cyclin C Inhibition rate @5 μM (%) (CDK8/cyclin C): 15%; inhibition at 5 µM (CDK8/cyclin C): < 20%; IC50 (MDA-MB-231 cells [1]): 8.11 to 15.7 µM; effect on cell cycle (percentage of cells in G2/M phase) (MDA-MB-231 cells [2]): increased the percentage of cells in the G2/M phase; IC50 (CDK6/cyclin D3): 4.8 ± 0.1 µM; selectivity for CDK2 over CDK6 (CDK6/cyclin D3): more than 140 fold; IC50 (CDK1/cyclin B): 0.15 ± 0.02 µM; selectivity for CDK2 over CDK1 (CDK1/cyclin B): 4.6 to 6.3 fold
